Where two headings read alike, the source gives them in different places.
How the values were obtained:
[1] = biological target: T1, recombinant renin in human plasma (Homo sapiens, UniProt P00797); test: Inhibition of renin in human plasma; format: biochemical; details: human EDTA plasma, 1 nM recombinant renin added, 37° C., 1 hour
T1 construct: purchased Proteos
T1 sequence (P00797 67-406): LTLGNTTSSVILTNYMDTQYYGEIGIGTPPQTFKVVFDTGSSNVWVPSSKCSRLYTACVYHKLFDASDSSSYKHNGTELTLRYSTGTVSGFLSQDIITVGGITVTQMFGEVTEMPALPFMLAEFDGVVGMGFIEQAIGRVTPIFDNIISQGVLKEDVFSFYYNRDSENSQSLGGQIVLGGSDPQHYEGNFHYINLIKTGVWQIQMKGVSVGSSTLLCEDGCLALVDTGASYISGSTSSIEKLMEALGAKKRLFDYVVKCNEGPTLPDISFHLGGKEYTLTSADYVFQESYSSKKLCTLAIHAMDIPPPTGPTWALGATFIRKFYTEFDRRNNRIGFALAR
Method: Human EDTA-collected plasma is rapidly thawed in warm water and centrifuged at 2900 g for 15 minutes at 4° C. The supernatant is collected and recombinant renin (Proteos) is added at a final concentration of 1 nM. […] The plate is incubated at 37° C. for 1 hour. […] Background fluorescence at t=0 is subtracted from the measurement at t=1 hour. Inhibitory activity of the compounds is expressed as IC50.

Human recombinant renin = biological target: T2, Human recombinant renin (Homo sapiens, UniProt P00797); test: Inhibition of human recombinant renin (buffer); format: biochemical; details: 100 pM renin, 50 mM MOPS pH 7.4, 37° C., 3 hours
T2 construct: purchased Proteos
T2 sequence (P00797 67-406): T1 sequence (P00797 67-406)
Method: Fluorescence is measured at times 0 and 3 hours with a SpectraMax Gemini EM reader set at an excitation wavelength of 328 nm and at an emission wavelength of 388 nm. Background fluorescence at t=0 is subtracted from the measurement at t=3 hours. Inhibitory activity of the compounds is expressed as IC50.

[2] = read-out: Human Renin IC50 (plasma)
[3] = read-out: Human Renin IC50 (buffer)

| IC50 [1, 2] [nM] | IC50 (Human recombinant renin; [3]) [nM] | IC50 ([1]; Human Renin IC50 (plasma)) [nM] | IC50 (Human recombinant renin; Human Renin IC50 (buffer)) [nM] | SMILES |
| --- | --- | --- | --- | --- |
| 1.3 | 0.9 |  |  | COCCCc1cc(CN(C(=O)[C@H]2CNCC[C@@H]2c2ccn(C)c(=O)c2)C2CC2)cc(Br)c1C (relative stereo) [Example 85, trans-N-({3-Bromo-4-methyl-5-[3-(methyloxy)propyl]phenyl}methyl)-N-cyclopropyl-4-(1-methyl-2-oxo-1,2-dihydro-4-pyridinyl)-3-piperidinecarboxamide] |
| 0.5 | 0.2 |  |  | COCCCc1cc(CCCOC)c(Cl)c(CN(C(=O)[C@H]2CNCC[C@@H]2c2ccn(C)c(=O)c2)C2CC2)c1 (relative stereo) [Example 89, trans-N-[2-Chloro-3,5-bis(3-methoxypropyl)benzyl]-N-cyclopropyl-4-(1-methyl-2-oxo-1,2-dihydro-4-pyridinyl)-3-piperidinecarboxamide] |
| 1.4 | 0.3 |  |  | Cc1c(Br)cc(CN(C(=O)[C@@H]2CNCC[C@H]2c2ccn(C)c(=O)c2)C2CC2)cc1CCCOC(F)F (relative stereo) [Example 103, trans-N-{3-Bromo-5-[3-(difluoromethoxy)propyl]-4-methylbenzyl}-N-cyclopropyl-4-(1-methyl-2-oxo-1,2-dihydro-4-pyridinyl)-3-piperidinecarboxamide] |
| 21 | 7.5 |  |  | Cc1cc(Cc2ccccc2)cc(CN(C(=O)[C@@H]2CNCC[C@H]2c2ccn(C)c(=O)c2)C2CC2)c1 (relative stereo) [Example 104, trans-N-(3-Benzyl-5-methylbenzyl)-N-cyclopropyl-4-(1-methyl-2-oxo-1,2-dihydro-4-pyridinyl)-3-piperidinecarboxamide] |
| 3.2 | 1.3 |  |  | COCCc1ccc(Cl)c(CN(C(=O)[C@H]2CNCC[C@]2(OC)c2ccn(C)c(=O)c2)C2CC2)c1 (relative stereo) [Example 109] |
| 1.2 | 0.3 |  |  | COCCCc1ccc2c(c1)C(N(C(=O)[C@H]1CNCCC1c1ccn(C)c(=O)c1)C1CC1)CCC2 (single isomer, unassigned) [Example 100 Diastereomer A, trans-N-Cyclopropyl-N-[7-(3-methoxypropyl)-1,2,3,4-tetrahydro-1-naphthalenyl]-4-(1-methyl-2-oxo-1,2-dihydro-4-pyridinyl)-3-piperidinecarboxamide] |
| 16.2 | 3.6 |  |  | COCCCc1ccc2c(c1)C(N(C(=O)[C@H]1CNCCC1c1ccn(C)c(=O)c1)C1CC1)CCC2 (single isomer, unassigned) [Example 100 Diastereomer B, trans-N-Cyclopropyl-N-[7-(3-methoxypropyl)-1,2,3,4-tetrahydro-1-naphthalenyl]-4-(1-methyl-2-oxo-1,2-dihydro-4-pyridinyl)-3-piperidinecarboxamide] |

Second part, the molecule before the results:

| SMILES | IC50 [1, 2] [nM] | IC50 (Human recombinant renin; [3]) [nM] | IC50 ([1]; Human Renin IC50 (plasma)) [nM] | IC50 (Human recombinant renin; Human Renin IC50 (buffer)) [nM] |
| --- | --- | --- | --- | --- |
| COCCCc1cc(Cl)c(Cl)c(CN(C(=O)[C@@H]2CNCC[C@H]2c2ccn(C)c(=O)c2)C2CC2)c1 (relative stereo) [Example 5, trans-N-Cyclopropyl-N-({2,3-dichloro-5-[3-(methyloxy)propyl]phenyl}methyl)-4-(1-methyl-2-oxo-1,2-dihydro-4-pyridinyl)-3-piperidinecarboxamide] | 1.3 | 0.3 |  |  |
| CCn1ccc([C@@H]2CCNC[C@H]2C(=O)N(Cc2cc(CCCOC)cc(OCCOC)c2)C2CC2)cc1=O (relative stereo) [Example 12, trans-N-Cyclopropyl-4-(1-ethyl-2-oxo-1,2-dihydro-4-pyridinyl)-N-({3-{[2-(methyloxy)ethyl]oxy}-5-[3-(methyloxy)propyl]phenyl}methyl)-3-piperidinecarboxamide] | 460 | 200 |  |  |
| COCCCc1cc(CN(C(=O)[C@@H]2CNCC[C@H]2c2cc(=O)n(C)c(C)c2C)C2CC2)cc(OCCOC)c1 (relative stereo) [Example 13, trans-N-Cyclopropyl-N-({3-{[2-(methyloxy)ethyl]oxy}-5-[3-(methyloxy)propyl]phenyl}methyl)-4-(1,5,6-trimethyl-2-oxo-1,2-dihydro-4-pyridinyl)-3-piperidinecarboxamide] | 80 | 25 |  |  |
| COCCCc1cc(CN(C(=O)[C@@H]2CNCC[C@H]2c2ccn(C)c(=O)c2)C2CC2)c2ccccc2c1 (relative stereo) [Example 18, trans-N-Cyclopropyl-4-(1-methyl-2-oxo-1,2-dihydro-4-pyridinyl)-N-({3-[3-(methyloxy)propyl]-1-naphthalenyl}methyl)-3-piperidinecarboxamide] | 1.8 | 0.4 |  |  |
| COCCCc1cc(CN(C(=O)[C@@H]2CNCC[C@H]2c2ccn(C)c(=O)c2)C2CC2)c2ccccc2n1 (relative stereo) [Example 25, trans-N-Cyclopropyl-4-(1-methyl-2-oxo-1,2-dihydro-4-pyridinyl)-N-({2-[3-(methyloxy)propyl]-4-quinolinyl}methyl)-3-piperidinecarboxamide] | 3 | 1.4 |  |  |
| COCCCc1cc(CN(C(=O)[C@@H]2CNCC[C@H]2c2ccn(C)c(=O)c2)C2CC2)cc(-c2ccccc2)c1 (relative stereo) [Example 33, trans-N-Cyclopropyl-4-(1-methyl-2-oxo-1,2-dihydro-4-pyridinyl)-N-({5-[3-(methyloxy)propyl]-3-biphenylyl}methyl)-3-piperidinecarboxamide] | 81 | 15 |  |  |
| COCCNc1cc(CN(C(=O)[C@@H]2CNCC[C@H]2c2ccn(C)c(=O)c2)C2CC2)c2ccccc2c1 (relative stereo) [Example 36, trans-N-Cyclopropyl-4-(1-methyl-2-oxo-1,2-dihydro-4-pyridinyl)-N-[(3-{[2-(methyloxy)ethyl]amino}-1-naphthalenyl)methyl]-3-piperidinecarboxamide] |  |  | 2.4 | 5.3 |
| Cn1ccc([C@@H]2CCNC[C@H]2C(=O)N(Cc2cn(Cc3cccc(F)c3)c3cccc(F)c23)C2CC2)cc1=O (relative stereo) [Example 68, trans-N-Cyclopropyl-N-({4-fluoro-1-[(3-fluorophenyl)methyl]-1H-indol-3-yl]methyl}-4-(1-methyl-2-oxo-1,2-dihydro-4-pyridinyl)-3-piperidinecarboxamide] | 0.6 | 0.06 |  |  |
| COCCCn1cc(CN(C(=O)[C@@H]2CNCC[C@H]2c2ccn(C)c(=O)c2)C2CC2)c2c(F)cccc21 (relative stereo) [Example 69, trans-N-Cyclopropyl-N-({4-fluoro-1-[3-(methyloxy)propyl]-1H-indol-3-yl}methyl)-4-(1-methyl-2-oxo-1,2-dihydro-4-pyridinyl)-3-piperidinecarboxamide] | 0.9 | 0.3 |  |  |
| Cn1ccc([C@@H]2CCNC[C@H]2C(=O)N(Cc2cn(Cc3cccc(F)c3)c3cccc(Br)c23)C2CC2)cc1=O (relative stereo) [Example 73, trans-N-({4-Bromo-1-[(3-fluorophenyl)methyl]-1H-indol-3-yl}methyl)-N-cyclopropyl-4-(1-methyl-2-oxo-1,2-dihydro-4-pyridinyl)-3-piperidinecarboxamide] | 0.5 | < 0.06 |  |  |
| Cn1ccc([C@@H]2CCNC[C@H]2C(=O)N(Cc2c[nH]c3cccc(F)c23)C2CC2)cc1=O (relative stereo) [Example 75, trans-N-Cyclopropyl-N-[(4-fluoro-1H-indol-3-yl)methyl]-4-(1-methyl-2-oxo-1,2-dihydro-4-pyridinyl)-3-piperidinecarboxamide] | 8.4 | 12.7 |  |  |
| Cn1ccc([C@@H]2CCNC[C@H]2C(=O)N(Cc2cn(Cc3ccncc3)c3cccc(F)c23)C2CC2)cc1=O (relative stereo) [Example 77, trans-N-Cyclopropyl-N-{[4-fluoro-1-(4-pyridinylmethyl)-1H-indol-3-yl]methyl}-4-(1-methyl-2-oxo-1,2-dihydro-4-pyridinyl)-3-piperidinecarboxamide] | 0.5 | 0.2 |  |  |
| COCCCn1cc(CN(C(=O)[C@@H]2CNCC[C@H]2c2ccn(C)c(=O)c2)C2CC2)c(=O)n(CCCOC)c1=O (relative stereo) [Example 79, trans-N-({1,3-Bis[3-(methyloxy)propyl]-2,4-dioxo-1,2,3,4-tetrahydro-5-pyrimidinyl}methyl)-N-cyclopropyl-4-(1-methyl-2-oxo-1,2-dihydro-4-pyridinyl)-3-piperidinecarboxamide] | 75 | 58 |  |  |
| COCCCc1ccc(SC)c(CN(C(=O)[C@H]2CNCC[C@@H]2c2ccn(C)c(=O)c2)C2CC2)c1 (relative stereo) [Example 84, trans-N-Cyclopropyl-4-(1-methyl-2-oxo-1,2-dihydro-4-pyridinyl)-N-{[5-[3-(methyloxy)propyl]-2-(methylthio)phenyl]methyl}-3-piperidinecarboxamide] | 12.3 | 4.7 |  |  |

— patent publication US8889714B2, “3,4-substituted piperidine derivatives as renin inhibitors” (Actelion Pharmaceuticals Ltd., priority 2008, dated 2014)
